{
  "source": "paper PMC11739978",
  "about": "“Next-Generation Carbazole-Linked 1,2,4-Triazole-Thione Derivatives: Strategic Design, Synthesis, Molecular Docking, and Evaluation of Antidiabetic Potential” (ACS Omega, 2024)",
  "key": {"[1]": {"test": "MTS cytotoxicity assay on LX-2 normal hepatic cells", "conditions": "human, LX-2 hepatic stellate cells"}, "[2]": {"system": "STZ-induced diabetic mice", "test": "In vivo hypoglycemic effect in mice with STZ-induced diabetes", "conditions": "group III STZ-diabetic mice, fasting", "experimental": "The Carbazole-triazole derivatives were tested in a laboratory setting to determine their ability to inhibit the enzyme α-amylase and α-glucosidase. […] Therefore, C5f was selected for further investigation of its ability to lower blood sugar levels in an in vivo study. This investigation sought to reveal the effect of C5f on blood glucose levels in mice with diabetes caused by Streptozotocin (STZ). This compound has a significant hypoglycemic effect in STZ-diabetic mice, similar to the effect reported in the control group (mice that were not treated), as shown in Figure 3. The mice were divided into three groups: group I: negative control mice without any treatment; Group II: positive control mice with STZ treatment only; and Group III: mice treated with STZ and then with our compound C5f.\nThe investigations conducted on mice adhered strictly to the protocols established by the Association for Assessment and Accreditation of Laboratory Animal Care International. The Institutional Review Board of the Animal House and Use Committee at An-Najah National University granted full ethical approval for the study (approval number: Med. September. 2022/2A). […]\nThe experiment entailed inducing diabetes intraperitoneally by administering streptozotocin (STZ) (i.p.). […] To determine the development of diabetes, the mice’s fasting blood glucose levels were evaluated 4 days following the injection of STZ. […]"}, "LX-2 cells": {"system": "LX-2 cells", "test": "MTS cytotoxicity assay on LX-2 normal hepatic cells", "conditions": "LX-2, 100 μM"}},
  "note": "Where “and” joins values, the source holds several entries; their conditions need not be identical. Identical values can stand only once.",
  "data": [
    {"smiles": "O=c1[nH]cc(F)c(=O)[nH]1", "note": "[5-Fu, 5-Fluorouracil, reference compound]", "values": [
      {"measurement": "viability at 24 h, 100 µM", "setting": "[1]", "value": 13.4, "unit": "%"}
    ]},
    {"smiles": "COc1ccc(-n2c(Cn3c4ccccc4c4ccccc43)n[nH]c2=S)cc1", "note": "[C5f, 5-((9H-Carbazol-9-yl)methyl)-4-(4-methoxyphenyl)-2,4-dihydro-3H-1,2,4-triazole-3-thione]", "values": [
      {"measurement": "blood glucose level after five doses of C5f", "setting": "[2]; 10 mg/kg i.p. daily for 5 days, 10 mg/kg", "value": "216.15 mg/dL and 216.15 ± 3.45 mg/dL"},
      {"measurement": "blood glucose level before C5f treatment", "setting": "[2]; baseline after STZ induction", "value": "290.54 mg/dL and 290.54 ± 2.15 mg/dL"},
      {"measurement": "viability at 24 h, 100 µM", "setting": "[1]", "value": 63.6, "unit": "%"}
    ]},
    {"smiles": "S=c1[nH]nc(Cn2c3ccccc3c3ccccc32)n1-c1ccc(Br)cc1", "note": "[C5g, 5-((9H-Carbazol-9-yl)methyl)-4-(4-bromophenyl)-2,4-dihydro-3H-1,2,4-triazole-3-thione]", "values": [
      {"measurement": "viability at 24 h, 100 µM", "setting": "[1]", "value": "65.3 to 85.3", "unit": "%"}
    ]},
    {"smiles": "S=c1[nH]nc(Cn2c3ccccc3c3ccccc32)n1-c1ccc(Cl)cc1", "note": "[C5h, 5-((9H-Carbazol-9-yl)methyl)-4-(4-chlorophenyl)-2,4-dihydro-3H-1,2,4-triazole-3-thione]", "values": [
      {"measurement": "viability at 24 h, 100 µM", "setting": "[1]", "value": "65.3 to 85.3", "unit": "%"}
    ]},
    {"smiles": "S=c1[nH]nc(Cn2c3ccccc3c3ccccc32)n1C1CCCCC1", "note": "[C5m, 5-((9H-Carbazol-9-yl)methyl)-4-cyclohexyl-2,4-dihydro-3H-1,2,4-triazole-3-thione]", "values": [
      {"measurement": "viability at 24 h, 100 µM", "setting": "[1]", "value": "65.3 to 85.3", "unit": "%"}
    ]},
    {"smiles": "O=C(c1ccccc1)n1c(Cn2c3ccccc3c3ccccc32)n[nH]c1=S", "note": "[C5o, (3-((9H-Carbazol-9-yl)methyl)-5-thioxo-1,5-dihydro-4H-1,2,4-triazol-4-yl)(phenyl)methanone]", "values": [
      {"measurement": "viability at 24 h, 100 µM", "setting": "[1]", "value": 36.5, "unit": "%"},
      {"measurement": "lower cytotoxic activity compared to the positive control 5-FU", "setting": "LX-2 cells", "value": 3, "unit": "fold"}
    ]},
    {"smiles": "S=c1[nH]nc(Cn2c3ccccc3c3ccccc32)n1C1CC2CCC1C2", "note": "(stereo not drawn) [C5r, 5-((9H-Carbazol-9-yl)methyl)-4-(bicyclo[2.2.1]heptan-2-yl)-2,4-dihydro-3H-1,2,4-triazole-3-thione]", "values": [
      {"measurement": "viability at 24 h, 100 µM", "setting": "[1]", "value": 64.5, "unit": "%"}
    ]},
    {"smiles": "S=c1[nH]nc(Cn2c3ccccc3c3ccccc32)n1CCc1ccccc1", "note": "[C5s, 5-((9H-Carbazol-9-yl)methyl)-4-phenethyl-2,4-dihydro-3H-1,2,4-triazole-3-thione]", "values": [
      {"measurement": "viability at 24 h, 100 µM", "setting": "[1]", "value": 37.8, "unit": "%"},
      {"measurement": "lower cytotoxic activity compared to the positive control 5-FU", "setting": "LX-2 cells", "value": 3, "unit": "fold"}
    ]}
  ]
}
